These results are taken from US7368414B2, “Fungicidal mixtures” (BASF Aktiengesellschaft, priority 2000, dated 2008).

This assay has as its system Plasmopara viticola. Nature of the assay: Activity against downy mildew of grapes caused by Plasmopara viticola (protective, potted vines). Type of assay: in vivo. The following applies: individual active compound. As for the experimental part: The active compounds, separately or together, were formulated as 10% emulsion in a mixture of 63% by weight of cyclohexanone and 27% by weight of emulsifier, and diluted with water to the desired concentration.
Evaluation was carried out by determining the infected leaf areas in percent. These percentages were converted into efficacies. The efficacy (w) was calculated as follows using Abbot's formula: w=(1−α)·100/β • α corresponds to the fungal infection of the treated plants in % and • β corresponds to the fungal infection of the untreated (control) plants in %
An efficacy of 0 means that the infection level of the treated plants corresponds to that of the untreated control plants; an efficacy of 100 means that the treated plants were not infected.
The expected efficacies of the mixtures of the active compounds were determined using Colby's formula [R. S. Colby, Weeds 15, 20-22 (1967)] and compared with the observed efficacies. Colby Formula: E=x+y−x·y/100 • E expected efficacy, expressed in % of the untreated control, when using the mixture of the active compounds A and B at the concentrations a and b • x efficacy, expressed in % of the untreated control, when using the active compound A at a concentration a • y efficacy, expressed in % of the untreated control, when using the active compound B at a concentration b
Leaves of potted vines of the cultivar “Müller-Thurgau” were sprayed to run off point with an aqueous preparation of active compound which had been prepared from a stock solution comprising 10% of active compound, 85% of cyclohexanone and 5% of emulsifier. The next day, the undersides of the leaves were inoculated with an aqueous zoospore suspension of Plasmopara viticola. The vines were then initially placed at 24° C. in a chamber saturated with water vapor for 48 hours and then for 5 days in a greenhouse at 20-30° C. After this period of time, the plants were once more placed into a moist chamber for 16 hours to promote sporangiophore eruption. The extent of the development of the disease on the undersides of the leaves was then determined visually.

Turning to `Cc1ccc(-c2c(Cl)nc(C#N)n2S(=O)(=O)N(C)C)cc1` [IIa, cyazofamid], the “Efficacy in % of the untreated control” value (0.25 ppm in the spray liquor, vines Müller-Thurgau) was 14%; the “Efficacy in % of the untreated control” value (1 ppm in the spray liquor) is 57%; the “Efficacy in % of the untreated control” value (4 ppm in the spray liquor) was 71%.
